Reference: patent US11161850B2, “Fused pyrazine derivatives as A2A / A2B inhibitors” (Incyte Corporation, priority 2018, dated 2021)
Read-outs that look alike come from different tables or passages of the source.

Tests used:
Adenosine A2A = Adenosine A2A (Homo sapiens (Human), UniProt P29274); experiment: A2A Tag-Lite HTRF assay; assay type: binding
Excerpt: Example C. A2A Tag-Lite® HTRF Assay

[1] = biological target: human adenosine A2B receptor (Homo sapiens (Human), UniProt P29275); experiment: Adenosine A2B Receptor Cyclic AMP GS Assay; assay type: cell-based; details: HEK-293 cells expressing human A2B, agonist NECA 12 nM
Method: Example B. Adenosine A2B Receptor Cyclic AMP GS Assay
Stably transfected HEK-293 cells expressing the human adenosine A2B receptor (Perkin Elmer) were maintained in MEM culture medium with 10% FBS and 100 μg/mL Geneticin (Life Technologies). 18 to 24 hours prior to assay, geneticin was removed from culture. The cisbio cAMP-GS Dynamic kit utilizing the FRET (Fluorescence Resonance Energy Transfer) technology was used to measure cAMP accumulation in the cells. Compounds of the present disclosure at an appropriate concentration were mixed with 10000 cells/well in white 96 well half area plates (Perkin Elmer) for 30 min at room temperature gently shaking. Agonist, NECA (R&D Technologies) at 12 nM was added to each well for 60 min at room temperature gently shaking. Detection reagents, d2-labeled cAMP (acceptor) and anti-cAMP cryptate (donor) were added to each well for 60 min at rt gently shaking. Plates were read on Pherastar (BMG Labtech), fluorescence ratio 665/620 was calculated and EC50 determination was performed by fitting the curve of percent of control versus the log of the compound concentration using GraphPad Prism.

[2] = read-out: A2A_Ki, Tag-Lite Adenosine A2A labeled cells, fluorescent ligand 12.5 nM
[3] = Tag-Lite Adenosine A2A labeled cells, fluorescent ligand 12.5 nM, read-out: A2A_Ki

Adenosine A2A, sequence (P29274 whole entry): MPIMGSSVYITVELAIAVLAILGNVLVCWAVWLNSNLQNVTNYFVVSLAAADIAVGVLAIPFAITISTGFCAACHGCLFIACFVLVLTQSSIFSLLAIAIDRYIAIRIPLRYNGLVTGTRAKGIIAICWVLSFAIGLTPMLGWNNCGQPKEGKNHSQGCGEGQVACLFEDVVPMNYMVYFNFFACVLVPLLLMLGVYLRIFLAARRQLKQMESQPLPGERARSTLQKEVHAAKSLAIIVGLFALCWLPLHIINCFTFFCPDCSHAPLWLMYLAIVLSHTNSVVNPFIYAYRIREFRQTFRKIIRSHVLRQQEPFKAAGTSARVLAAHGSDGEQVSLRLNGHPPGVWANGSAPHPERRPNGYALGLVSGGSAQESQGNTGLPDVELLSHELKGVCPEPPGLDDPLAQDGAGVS
human adenosine A2B receptor, sequence (P29275 whole entry): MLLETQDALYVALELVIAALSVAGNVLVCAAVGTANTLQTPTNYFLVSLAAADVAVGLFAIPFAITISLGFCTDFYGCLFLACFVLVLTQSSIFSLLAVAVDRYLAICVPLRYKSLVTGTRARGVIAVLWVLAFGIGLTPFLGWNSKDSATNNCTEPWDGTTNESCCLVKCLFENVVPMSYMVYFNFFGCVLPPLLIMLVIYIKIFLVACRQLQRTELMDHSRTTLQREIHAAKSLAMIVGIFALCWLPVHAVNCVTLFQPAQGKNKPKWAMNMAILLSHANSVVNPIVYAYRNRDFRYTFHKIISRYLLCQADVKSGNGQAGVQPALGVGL

`N#Cc1cccc(-c2nc(N)c3nc(C(O)c4c(F)cccc4OC(F)F)nn3c2-c2ccncn2)c1` (single isomer, unassigned) [Example 98, 3-(8-amino-2-((2-(difluoromethoxy)-6-fluorophenyl)(hydroxy)methyl)-5-(pyrimidin-4-yl)-[1,2,4]triazolo[1,5-a]pyrazin-6-yl)benzonitrile] was tested, and the Ki (Adenosine A2A; [2]) was less than 10 nM and the EC50 ([1]; read-out: A2B_cAMP_EC50) was less than 10 nM.

`CN(C)Cc1cccc(F)c1C(O)c1nc2c(N)nc(-c3cccc(C#N)c3)c(-c3ccncn3)n2n1` (single isomer, unassigned) [Example 100, 3-(8-amino-2-((2-((dimethylamino)methyl)-6-fluorophenyl)(hydroxy)methyl)-5-(pyrimidin-4-yl)-[1,2,4]triazol[1,5-a]pyrazin-6-yl)benzonitrile] gave a Ki (Adenosine A2A) of less than 10 nM and an EC50 ([1]; A2B_cAMP_EC50 (nM)) of 100 to 1000 nM.

In the case of `CN(C)Cc1cccc(F)c1C(O)c1nc2c(N)nc(-c3cccc(C#N)c3)c(-c3ccncn3)n2n1` (single isomer, unassigned) [Example 101, 3-(8-amino-2-((2-((dimethylamino)methyl)-6-fluorophenyl)(hydroxy)methyl)-5-(pyrimidin-4-yl)-[1,2,4]triazolo[1,5-a]pyrazin-6-yl)benzonitrile], the Ki (Adenosine A2A; [2]) is reported as less than 10 nM and the EC50 ([1]; A2B_cAMP_EC50 (nM)) is reported as less than 10 nM.

With `Cc1n[nH]cc1-c1c(-c2cccc(C#N)c2)nc(N)c2nc(C(O)c3c(F)cccc3F)nn12` (single isomer, unassigned) [Example 102, 3-(8-amino-2-((2,6-difluorophenyl)(hydroxy)methyl)-5-(3-methyl-1H-pyrazol-4-yl)-[1,2,4]triazolo[1,5-a]pyrazin-6-yl)benzonitrile] the Ki (Adenosine A2A) was less than 10 nM and the EC50 ([1]; A2B_cAMP_EC50 (nM)) was less than 10 nM.

`Cc1n[nH]cc1-c1c(-c2cccc(C#N)c2)nc(N)c2nc(C(O)c3c(F)cccc3F)nn12` (single isomer, unassigned) [Example 103, 3-(8-amino-2-((2,6-difluorophenyl)(hydroxy)methyl)-5-(3-methyl-1H-pyrazol-4-yl)-[1,2,4]triazolo[1,5-a]pyrazin-6-yl)benzonitrile] gave a Ki (Adenosine A2A; [2]) of less than 10 nM and an EC50 ([1]; read-out: A2B_cAMP_EC50) of less than 10 nM.

Compound `N#Cc1cccc(-c2nc(N)c3nc(C(O)c4c(F)cccc4F)nn3c2-c2cnco2)c1` (single isomer, unassigned) [Example 105, 3-(8-amino-2-((2,6-difluorophenyl)(hydroxy)methyl)-5-(oxazol-5-yl)-[1,2,4]triazolo[1,5-a]pyrazin-6-yl)benzonitrile] has a Ki (Adenosine A2A) of less than 10 nM and an EC50 ([1]; A2B_cAMP_EC50 (nM)) of less than 10 nM.

In the case of `N#Cc1cccc(-c2nc(N)c3nc(C(O)c4c(F)cccc4F)nn3c2-c2cnco2)c1` (single isomer, unassigned) [Example 106, 3-(8-amino-2-((2,6-difluorophenyl)(hydroxy)methyl)-5-(oxazol-5-yl)-[1,2,4]triazolo[1,5-a]pyrazin-6-yl)benzonitrile], the Ki (Adenosine A2A; [2]) is reported as less than 10 nM and the EC50 ([1]; read-out: A2B_cAMP_EC50) is reported as less than 10 nM.

Compound `Cc1cnccc1-c1c(-c2cccc(C#N)c2)nc(N)c2nc(C(O)c3c(F)cccc3F)nn12` (single isomer, unassigned) [Example 108, 3-(8-amino-2-((2,6-difluorophenyl)(hydroxy)methyl)-5-(3-methylpyridin-4-yl)-[1,2,4]triazolo[1,5-a]pyrazin-6-yl)benzonitrile] has a Ki (Adenosine A2A) of less than 10 nM and an EC50 ([1]; A2B_cAMP_EC50 (nM)) of less than 10 nM.

Compound `Cc1cnccc1-c1c(-c2cccc(C#N)c2)nc(N)c2nc(C(O)c3c(F)cccc3F)nn12` (single isomer, unassigned) [Example 109, 3-(8-amino-2-((2,6-difluorophenyl)(hydroxy)methyl)-5-(3-methylpyridin-4-yl)-[1,2,4]triazolo[1,5-a]pyrazin-6-yl)benzonitrile] has a Ki (Adenosine A2A; [2]) of less than 10 nM and an EC50 ([1]; read-out: A2B_cAMP_EC50) of less than 10 nM.

`N#Cc1cccc(-c2nc(N)c3nc(C(O)c4c(F)cccc4CN4CCCC4)nn3c2-c2ccncn2)c1` (single isomer, unassigned) [Example 110, 3-(8-amino-2-((2-fluoro-6-(pyrrolidin-1-ylmethyl)phenyl)(hydroxy)methyl)-5-(pyrimidin-4-yl)-[1,2,4]triazolo[1,5-a]pyrazin-6-yl)benzonitrile] gave a Ki (Adenosine A2A) of less than 10 nM and an EC50 ([1]; A2B_cAMP_EC50 (nM)) of 100 to 1000 nM.

`N#Cc1cccc(-c2nc(N)c3nc(C(O)c4c(F)cccc4CN4CCCC4)nn3c2-c2ccncn2)c1` (single isomer, unassigned) [Example 111, 3-(8-amino-2-((2-fluoro-6-(pyrrolidin-1-ylmethyl)phenyl)(hydroxy)methyl)-5-(pyrimidin-4-yl)-[1,2,4]triazolo[1,5-a]pyrazin-6-yl)benzonitrile] was tested, and the Ki (Adenosine A2A; [2]) was less than 10 nM and the EC50 ([1]; A2B_cAMP_EC50 (nM)) was less than 10 nM.

With `CCNC(=O)c1cc2c(N)nc(-c3cccc(C#N)c3)c(-c3ccnn3CC)n2n1` [Example 1, 4-Amino-6-(3-cyanophenyl)-N-ethyl-7-(1-ethyl-1H-pyrazol-5-yl)pyrazolo[1,5-a]pyrazine-2-carboxamide] the Ki (Adenosine A2A; [3]) was less than 10 nM and the EC50 ([1]; A2B_cAMP_EC50 (nM)) was 10 to 100 nM.

Compound `CCCn1nccc1-c1c(-c2cccc(C#N)c2)nc(N)c2cc(C(=O)NCC)nn12` [Example 2, 4-Amino-6-(3-cyanophenyl)-N-ethyl-7-(1-propyl-1H-pyrazol-5-yl)pyrazolo[1,5-a]pyrazine-2-carboxamide] has a Ki (Adenosine A2A; [3]) of less than 10 nM and an EC50 ([1]; A2B_cAMP_EC50 (nM)) of 10 to 100 nM.

`CCNC(=O)c1cc2c(N)nc(-c3cccc(C#N)c3)c(-c3ccc(=O)n(C)c3)n2n1` [Example 3, 4-Amino-6-(3-cyanophenyl)-N-ethyl-7-(1-methyl-6-oxo-1,6-dihydropyridin-3-yl)pyrazolo[1,5-a]pyrazine-2-carboxamide] was tested, and the Ki (Adenosine A2A; [3]) was less than 10 nM and the EC50 ([1]; A2B_cAMP_EC50 (nM)) was 100 to 1000 nM.

`CCNC(=O)c1cc2c(N)nc(-c3cccc(C#N)c3)c(-c3ccncn3)n2n1` [Example 4, 4-Amino-6-(3-cyanophenyl)-N-ethyl-7-(pyrimidin-4-yl)pyrazolo[1,5-a]pyrazine-2-carboxamide] showed a Ki (Adenosine A2A; [3]) of less than 10 nM and an EC50 ([1]; A2B_cAMP_EC50 (nM)) of 10 to 100 nM.

Compound `CCNC(=O)c1cc2c(N)nc(-c3cccc(C#N)c3)c(C(C)(F)F)n2n1` [Example 5, 4-Amino-6-(3-cyanophenyl)-7-(1,1-difluoroethyl)-N-ethylpyrazolo[1,5-a]pyrazine-2-carboxamide] has a Ki (Adenosine A2A; [3]) of less than 10 nM and an EC50 ([1]; A2B_cAMP_EC50 (nM)) of 100 to 1000 nM.

For `CCNC(=O)c1cc2c(N)nc(-c3cccc(C#N)c3)c(C3(C(F)(F)F)CC3)n2n1` [Example 6, 4-Amino-6-(3-cyanophenyl)-N-ethyl-7-(1-(trifluoromethyl)cyclopropyl)pyrazolo[1,5-a]pyrazine-2-carboxamide], the Ki (Adenosine A2A) was 10 to 100 nM and the EC50 ([1]; A2B_cAMP_EC50 (nM)) was greater than 1000 nM.

With `N#Cc1cccc(-c2nc(N)c3cc(C(=O)N4CCC4)nn3c2-c2ccncn2)c1` [Example 7, 3-(4-Amino-2-(azetidine-1-carbonyl)-7-(pyrimidin-4-yl)pyrazolo[1,5-a]pyrazin-6-yl)benzonitrile] the Ki (Adenosine A2A; [3]) was less than 10 nM and the EC50 ([1]; A2B_cAMP_EC50 (nM)) was less than 10 nM.

`N#Cc1cccc(-c2nc(N)c3cc(C(=O)N4CCCC4)nn3c2-c2ccncn2)c1` [Example 8, 3-(4-Amino-7-(pyrimidin-4-yl)-2-(pyrrolidine-1-carbonyl)pyrazolo[1,5-a]pyrazin-6-yl)benzonitrile] showed a Ki (Adenosine A2A; [3]) of less than 10 nM and an EC50 ([1]; A2B_cAMP_EC50 (nM)) of 10 to 100 nM.

Work on `N#Cc1cccc(-c2nc(N)c3cc(C(=O)N4CCCCC4)nn3c2-c2ccncn2)c1` [Example 9, 3-(4-Amino-2-(piperidine-1-carbonyl)-7-(pyrimidin-4-yl)pyrazolo[1,5-a]pyrazin-6-yl)benzonitrile] yielded a Ki (Adenosine A2A; [3]) of less than 10 nM and an EC50 ([1]; A2B_cAMP_EC50 (nM)) of 10 to 100 nM.

For `CCN(CC)C(=O)c1cc2c(N)nc(-c3cccc(C#N)c3)c(-c3ccncn3)n2n1` [Example 10, 4-Amino-6-(3-cyanophenyl)-N,N-diethyl-7-(pyrimidin-4-yl)pyrazolo[1,5-a]pyrazine-2-carboxamide], the Ki (Adenosine A2A; [3]) was less than 10 nM and the EC50 ([1]; A2B_cAMP_EC50 (nM)) was less than 10 nM.

With `CCN(C)C(=O)c1cc2c(N)nc(-c3cccc(C#N)c3)c(-c3ccncn3)n2n1` [Example 11, 4-Amino-6-(3-cyanophenyl)-N-ethyl-N-methyl-7-(pyrimidin-4-yl)pyrazolo[1,5-a]pyrazine-2-carboxamide] the Ki (Adenosine A2A; [3]) was less than 10 nM and the EC50 ([1]; A2B_cAMP_EC50 (nM)) was less than 10 nM.

`N#Cc1cccc(-c2nc(N)c3cc(C(=O)N4CC(O)C4)nn3c2-c2ccncn2)c1` [Example 12, 3-(4-Amino-2-(3-hydroxyazetidine-1-carbonyl)-7-(pyrimidin-4-yl)pyrazolo[1,5-a]pyrazin-6-yl)benzonitrile] showed a Ki (Adenosine A2A; [3]) of less than 10 nM and an EC50 ([1]; A2B_cAMP_EC50 (nM)) of 10 to 100 nM.

Work on `N#Cc1cccc(-c2nc(N)c3cc(CN4CCC4)nn3c2-c2ccncn2)c1` [Example 13, 3-(4-Amino-2-(azetidin-1-ylmethyl)-7-(pyrimidin-4-yl)pyrazolo[1,5-a]pyrazin-6-yl)benzonitrile] yielded a Ki (Adenosine A2A) of 10 to 100 nM and an EC50 ([1]; A2B_cAMP_EC50 (nM)) of 100 to 1000 nM.

With `CCOC(=O)Nc1nc2c(N)nc(-c3cccc(C#N)c3)cn2n1` [Example 14, Ethyl(8-amino-6-(3-cyanophenyl)-[1,2,4]triazolo[1,5-a]pyrazin-2-yl)carbamate] the Ki (Adenosine A2A) was 10 to 100 nM and the EC50 ([1]; A2B_cAMP_EC50 (nM)) was greater than 1000 nM.

Work on `N#Cc1cccc(-c2nc(N)c3ncnn3c2-c2ccc(=O)[nH]c2)c1` [Example 15, 3-(8-Amino-5-(6-oxo-1,6-dihydropyridin-3-yl)-[1,2,4]triazolo[1,5-a]pyrazin-6-yl)benzonitrile] yielded a Ki (Adenosine A2A; [3]) of less than 10 nM and an EC50 ([1]; A2B_cAMP_EC50 (nM)) of less than 10 nM.

`N#Cc1cccc(-c2cn3nc(Cc4ccccn4)cc3c(N)n2)c1` [Example 16, 3-(4-Amino-2-(pyridin-2-ylmethyl)pyrazolo[1,5-a]pyrazin-6-yl)benzonitrile] showed a Ki (Adenosine A2A; [3]) of less than 10 nM and an EC50 ([1]; A2B_cAMP_EC50 (nM)) of less than 10 nM.
